Laboratory results: ChEMBL document CHEMBL1221261, “Fluorescent retinoid X receptor ligands for fluorescence polarization assay” (Bioorg Med Chem Lett, 2010)
Activity calls are given as the source filed them. The calls are words filed in the database; no cut-off is given here.

Columns and labels:
[1] = molecular target: T1, Retinoic acid receptor RXR-alpha (Homo sapiens) (UniProt P19793); assay: (§1) Agonist activity at human RXRalpha expressed in […] cells by luciferase reporter gene assay; type: functional, cell-based; settings: COS-7
T1 sequence (whole entry): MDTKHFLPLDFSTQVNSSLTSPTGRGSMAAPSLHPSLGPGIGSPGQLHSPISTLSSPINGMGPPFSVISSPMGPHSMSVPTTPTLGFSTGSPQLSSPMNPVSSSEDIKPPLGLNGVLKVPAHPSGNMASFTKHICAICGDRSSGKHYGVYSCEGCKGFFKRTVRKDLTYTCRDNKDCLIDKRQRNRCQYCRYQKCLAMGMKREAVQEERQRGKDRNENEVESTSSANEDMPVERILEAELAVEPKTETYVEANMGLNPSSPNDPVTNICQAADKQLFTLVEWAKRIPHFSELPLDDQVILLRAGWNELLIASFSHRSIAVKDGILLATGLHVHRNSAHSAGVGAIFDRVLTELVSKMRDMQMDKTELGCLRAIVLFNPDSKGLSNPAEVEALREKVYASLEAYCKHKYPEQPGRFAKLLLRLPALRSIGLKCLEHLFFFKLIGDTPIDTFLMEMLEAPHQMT

[2] = molecular target: T2, Retinoic acid receptor RXR-alpha (Homo sapiens, UniProt P19793); assay: as §1; type: functional, cell-based, COS-7
T2 sequence (P19793 whole entry): T1 sequence (whole entry)

[3] = molecular target: T1, Retinoic acid receptor RXR-alpha (Homo sapiens); assay: Agonist activity at human RXRalpha expressed in […] cells at 1 uM by luciferase reporter gene assay; type: functional, cell-based; settings: COS-7

Compound	Activity [1]	EC50 [2]	Activity [3]
CCN(c1ccc(C(=O)O)cn1)c1ccc2c(C)cc(=O)n(C)c2n1	inactive		
CCN(c1ccc(C(=O)O)cn1)c1ccc2c(C(F)(F)F)cc(=O)n(CC)c2n1		1000 nM	
CCN(c1ccc(C(=O)O)cn1)c1ccc2c(C(F)(F)F)cc(=O)n(C)c2n1		1000 nM	
CCN(c1ccc(C(=O)O)cn1)c1ccc2c(C(F)(F)F)cc(=O)n(CC(C)C)c2n1		1000 nM	Active
